Results from PubChem BioAssay (NCI).
“And” between values parts separate entries of the source, which are not always exact repeats. Equal values may be shown once.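 The compound was tested at five concentrations on cells cultured in 96-well plates, with a 48-hour exposure period. GI50 = concentration required for 50% inhibition of growth. TGI marks complete inhibition of growth.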

Experiments:
Assay in all cases: NCI-60 cell line screen, 48 h
[1] = test system: HCT-15 colon
[2] = test system: M14 melanoma
[3] = test system: MDA-MB-435
[4] = test system: MOLT-4 leukemia
[5] = test system: NCI-H460 lung
[6] = test system: NCI/ADR-RES ovarian
[7] = test system: RPMI-8226 leukemia
[8] = test system: SF-295 CNS
[9] = test system: SK-OV-3 ovarian
[10] = test system: UACC-257 melanoma

SMILES	TGI [1]	TGI [2]	TGI [3]	TGI [4]	TGI [5]	TGI [6]	TGI [7]	TGI [8]	TGI [9]	TGI [10] [µM]	GI50 [1]	GI50 [2]	GI50 [3]	GI50 [4]	GI50 [5]	GI50 [6]	GI50 [7]	GI50 [8]	GI50 [9]	GI50 [10]
COC1/C=C/OC2(C)Oc3c(C)c(O)c4c(c3C2=O)C(=O)C=C(NC(=O)/C(C)=C\C=C\C(C)C(OC=O)C(C)C(O)C(C)C(OC(C)=O)C1C)C4=O (centres undefined)	22.7 µM	19.5 µM	33.3 µM	10.8 µM	42 µM	49.2 µM	24.2 µM	51 µM	56.7 µM	26.5	–	–	–	–	–	–	–	–	–	–
CN1CCCN(CCNc2nccc(-c3c(-c4cccc(O)c4)nc4sccn34)n2)S1(=O)=O	75 µM and 98.4 µM	9.04 µM and 13.2 µM	20.6 µM and > 71.8 µM	52.1 µM and 41.2 µM	75 µM and > 75.9 µM	75 µM and > 100 µM	37.2 µM and 41.3 µM	32.1 µM and 38.8 µM	21.3 µM and 17 µM	–	7.12 µM and 5.51 µM	0.17 µM and 0.128 µM	0.285 µM and 0.438 µM	14.5 µM and 10.2 µM	4.41 µM and 4.72 µM	22.5 µM and 31.1 µM	16.7 µM and 15.2 µM	12.9 µM and 13.3 µM	3.44 µM and 3.21 µM	0.132 µM and 1.01 µM
Cn1cc(C2=C(c3cn(C)c4ccc(N)cc34)C(=O)NC2=O)c2ccccc21	> 25 µM	> 25 µM	> 25 µM	> 25 µM	> 25 µM	> 25 µM	> 25 µM	> 22.2 µM	> 25 µM	> 25	4.52 µM	13.9 µM	0.729 µM	10.2 µM	9.53 µM	10.3 µM	> 16.5 µM	6.83 µM	8.99 µM	> 25 µM
Cc1cc(N(CCNc2ccnc3cc(Cl)ccc23)Cc2ccc3c(c2)OCO3)nc(N2CCN(C)CC2)n1	3.82 µM	3.55 µM	3.07 µM	8.36 µM	7.86 µM	14.7 µM	5.23 µM	3.42 µM	21.6 µM	3.79	1.55 µM	1.89 µM	1.61 µM	2.09 µM	2.65 µM	3.26 µM	1.88 µM	1.72 µM	9.55 µM	2.01 µM
O=C(Nc1ccc(OC(F)(F)F)cc1)c1sccc1NCc1ccnc2ccccc12	> 66.7 µM	30.6 µM	18.7 µM	> 31.6 µM	> 100 µM	> 100 µM	29.8 µM	> 45.7 µM	> 100 µM	52.5	3.22 µM	2.74 µM	2.87 µM	3.09 µM	4.01 µM	2.81 µM	3.32 µM	2.63 µM	2.42 µM	3.62 µM
C#C[C@]1(O)CC[C@H]2[C@@H]3CC=C4c5nc(Nc6ccccn6)sc5CC[C@]4(C)[C@H]3CC[C@@]21C	2.94 µM	3.21 µM	4.45 µM	1.7 µM	2.83 µM	6.1 µM	0.602 µM	0.489 µM	5.29 µM	2.55	1.27 µM	1.14 µM	1.55 µM	0.344 µM	1.21 µM	1.72 µM	0.182 µM	0.218 µM	1.32 µM	0.778 µM
NS(=O)(=O)c1ccc(N2Cc3cc(Cl)ccc3OC3=C2C(=O)N(CC2CCCCC2)C3=O)cc1	1.45 µM	2.95 µM	2.23 µM	0.531 µM	4.04 µM	5.05 µM	0.575 µM	4.03 µM	4.26 µM	3	0.344 µM	1.25 µM	0.903 µM	0.195 µM	1.72 µM	1.74 µM	0.227 µM	1.81 µM	2.07 µM	1.54 µM
Cc1cc2c(cc1C)NC1=C(N2)OC(c2c[nH]c3ccc(COc4ccccc4)cc23)C1=O (centres undefined)	> 100 µM	> 100 µM	> 100 µM	> 100 µM	> 100 µM	> 100 µM	> 100 µM	> 100 µM	> 100 µM	> 100	–	–	–	–	–	–	–	–	–	–
CCN(c1ccc(CO)c(Cl)c1)C(C)c1ccc(F)cc1 (centres undefined)	28.9 µM	33.8 µM	32.5 µM	40 µM	23.7 µM	31.2 µM	39.2 µM	24.3 µM	29.2 µM	12.8	13.7 µM	17.6 µM	17.3 µM	19.3 µM	7.88 µM	14.5 µM	11.8 µM	11.5 µM	15.7 µM	2.8 µM
Nc1cc2c3c(cccc3c1)NC2=O	> 100 µM	> 100 µM	> 100 µM	> 100 µM	> 100 µM	> 100 µM	> 100 µM	> 100 µM	> 100 µM	> 100	–	–	–	–	–	–	–	–	–	–
COc1ccc2nc(-c3ccccc3)cc(Nc3cccc(/C(C)=N\O)c3)c2c1	> 100 µM	> 100 µM	7.96 µM	> 100 µM	> 100 µM	> 100 µM	> 100 µM	5.13 µM	80.6 µM	> 100	29.8 µM	5.04 µM	2.5 µM	6.18 µM	6.84 µM	6.35 µM	4.89 µM	2.05 µM	6.65 µM	19.4 µM
O=C(CC(C(=O)c1cccs1)c1ccc2c(c1)OCO2)c1ccc(Br)cc1 (centres undefined)	> 100 µM	> 100 µM	> 100 µM	> 100 µM	> 100 µM	> 100 µM	> 100 µM	> 100 µM	> 100 µM	> 100	–	–	–	–	–	–	–	–	–	–
CC1(C)O[C@H]2OC3CCC(=O)CC3(O)[C@H]2O1 (some centres undefined)	> 100 µM	> 100 µM	> 100 µM	> 100 µM	> 100 µM	> 100 µM	> 100 µM	> 100 µM	> 100 µM	> 100	–	–	–	–	–	–	–	–	–	–
COc1ccc(Cl)cc1Nc1nc(C(F)(F)F)ccc1C(=O)NN	> 100 µM	13 µM	> 100 µM	> 24.3 µM	> 100 µM	> 22.5 µM	13.3 µM	11.7 µM	> 68.1 µM	> 30.2	1.2 µM	2.38 µM	9.08 µM	2.53 µM	23 µM	2.3 µM	1.91 µM	1.97 µM	3.88 µM	3.87 µM
